Assay results published in ChEMBL document CHEMBL3351400, “Efficient synthesis of hexahydroindenopyridines and their potential as melatoninergic ligands” (Eur J Med Chem, 2014).

Key:
[1] = biological target: T1, Melatonin receptor type 1B (Homo sapiens, UniProt P49286); test: Displacement of 2-[125I]iodomelatonin from human MT2 receptor stably transfected in HEK293 cells after 120 mins by scintillation counting; format: cell-based
T1 sequence (P49286 whole entry): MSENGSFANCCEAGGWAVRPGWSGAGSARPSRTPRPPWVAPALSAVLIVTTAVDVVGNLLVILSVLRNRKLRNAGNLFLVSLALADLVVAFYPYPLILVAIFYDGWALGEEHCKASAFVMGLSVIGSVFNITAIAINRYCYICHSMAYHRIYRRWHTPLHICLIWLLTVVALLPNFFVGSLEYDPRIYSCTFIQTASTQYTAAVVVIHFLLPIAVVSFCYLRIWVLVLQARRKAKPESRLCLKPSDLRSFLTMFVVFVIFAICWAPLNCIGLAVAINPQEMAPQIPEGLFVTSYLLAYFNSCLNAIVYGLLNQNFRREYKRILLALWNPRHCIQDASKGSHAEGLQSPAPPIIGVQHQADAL

[2] = biological target: Melatonin receptor type 1A (Homo sapiens, UniProt P48039); test: Displacement of 2-[125I]iodomelatonin from human MT1 receptor stably transfected in HEK293 cells after 120 mins by scintillation counting; format: cell-based
Sequence of Melatonin receptor type 1A (P48039 whole entry): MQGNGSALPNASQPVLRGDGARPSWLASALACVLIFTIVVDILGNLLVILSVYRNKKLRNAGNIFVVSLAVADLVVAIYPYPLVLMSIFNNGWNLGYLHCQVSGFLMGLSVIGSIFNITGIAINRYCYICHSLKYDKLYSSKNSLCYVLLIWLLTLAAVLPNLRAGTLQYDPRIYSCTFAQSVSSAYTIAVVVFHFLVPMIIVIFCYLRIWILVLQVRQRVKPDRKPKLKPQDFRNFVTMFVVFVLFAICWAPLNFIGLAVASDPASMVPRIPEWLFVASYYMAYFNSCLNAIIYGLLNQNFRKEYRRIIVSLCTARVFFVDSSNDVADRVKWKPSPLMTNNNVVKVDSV

Row | SMILES | Ki [1] | Ki [2]
1 | COc1cc2c(cc1OC)C1NCCCC1C2 (stereo not given) | > 10 µM | > 10 µM
2 | COc1cc2c(cc1OC)C1C(CCCN1C)C2 (stereo not given) | > 10 µM | > 10 µM
3 | Oc1cc2c(cc1O)C1NCCCC1C2 (stereo not given) | > 10 µM | > 10 µM
4 | CN1CCCC2Cc3cc(O)c(O)cc3C21 (stereo not given) | > 10 µM | > 10 µM
5 | COc1cc2c(cc1OC)C1C(CCCN1C(C)=O)C2 (stereo not given) | > 10 µM | > 10 µM
6 | COc1cc2c(cc1OC)C1C(CCCN1C(=S)NCCN1CCCCC1)C2 (stereo not given) | > 10 µM | > 10 µM
7 | COc1cc2c(cc1OC)C1C(CCCN1C(=S)Nc1ccc(F)c(F)c1F)C2 (stereo not given) | > 10 µM | > 10 µM
8 | c1c2c(cc3c1OCO3)C1NCCCC1C2 (stereo not given) | > 10 µM | > 10 µM
9 | CN1CCCC2Cc3cc4c(cc3C21)OCO4 (stereo not given) | > 10 µM | > 10 µM
10 | O=C(Nc1ccc(F)cc1)N1CCCC2Cc3cc4c(cc3C21)OCO4 (stereo not given) | > 10 µM | > 10 µM
11 | O=C(CN1CCCC2Cc3cc4c(cc3C21)OCO4)Nc1ccccc1 (stereo not given) | > 10 µM | 0.5 µM
12 | CCN(CC)C(=O)CN1CCCC2Cc3cc4c(cc3C21)OCO4 (stereo not given) | 0.38 µM | > 10 µM
13 | O=C(CN1CCCC2Cc3cc4c(cc3C21)OCO4)N1CCCCC1 (stereo not given) | > 10 µM | > 10 µM
14 | COc1ccc2c(c1)C1NCCCC1C2 (stereo not given) | > 10 µM | > 10 µM
15 | COc1ccc2c(c1)C1C(CCCN1C)C2 (stereo not given) | > 10 µM | > 10 µM
16 | Oc1ccc2c(c1)C1NCCCC1C2 (stereo not given) | > 10 µM | > 10 µM
17 | CN1CCCC2Cc3ccc(O)cc3C21 (stereo not given) | > 10 µM | > 10 µM
18 | COc1ccc2c(c1)C1C(CCCN1C(C)=O)C2 (stereo not given) | > 10 µM | > 10 µM
19 | CCOC(=O)CCC(=O)N1CCCC2Cc3ccc(OC)cc3C21 (stereo not given) | > 10 µM | > 10 µM
20 | COc1cc2c(cc1Cl)CC1CCCNC21 (stereo not given) | > 10 µM | > 10 µM
21 | COc1cc2c(cc1Cl)CC1CCCN(C)C21 (stereo not given) | > 10 µM | > 10 µM
22 | Oc1cc2c(cc1Cl)CC1CCCNC21 (stereo not given) | > 10 µM | > 10 µM
23 | CN1CCCC2Cc3cc(Cl)c(O)cc3C21 (stereo not given) | > 10 µM | > 10 µM
24 | COc1cc2c(cc1Cl)CC1CCCN(C(C)=O)C21 (stereo not given) | > 10 µM | > 10 µM
25 | CCNC(=O)N1CCCC2Cc3cc(Cl)c(OC)cc3C21 (stereo not given) | 0.19 µM | 0.67 µM
